Measured values: US8426415B2, “Human ADAM-10 inhibitors” (Symphony Evolution, Inc., priority 2007, dated 2013)

Assay: stability in solution of the free hydroxamic acid (observed during purification)
Type: physicochemical
Details: degradation during lengthy column elution and solvent evaporation on pilot scale
Text: The purity of hydroxycarbamoylpiperazine of formula VIII obtained after part (i) ranged from 84% to 92%. The observed yields were between 63% and 78%. This hydroxycarbamoylpiperazine was of insufficient purity to produce pure magnesium salt/complex of formula VI suitable for pharmaceutical use. The direct conversion of hydroxycarbamoylpiperazine of formula VIII to the magnesium salt/complex of formula VI by omitting parts (ii) and (iii) yielded the magnesium salt/complex with the purity ranging from 96% to 97%. We discovered that this problem could be solved by first obtaining and separating a benzhydrylpiperazine complex of formula IX prior to the conversion to the magnesium salt/complex of […]. Yields for the process that included parts (i)-(iv) ranged from 81% to 86%. The purity of the magnesium salt/complex of […] was at least 99%; specifically, between 99.4% and 99.7%.

stability in solution: poor stability in solution
SMILES: COCCOC(=O)N1CCN(S(=O)(=O)c2cc(F)c(Oc3ccc(Cl)cc3)c(F)c2)[C@@H](C(=O)NO)C1 [formula VIII, 4-(4-(4-chlorophenoxy)-3,5-difluorophenylsulfonyl)-3-(hydroxycarbamoyl)piperazine-1-carboxylic acid, (R)-2-methoxyethyl ester]
